Data from patent US5494932A, “Sulfonic stilbene derivatives in the treatment of viral disease” (Merrell Dow Pharmaceuticals Inc., priority 1991, dated 1996).
Read-outs that look alike come from different tables or passages of the source.

Tests used:
HSV 2 = test: Plaque reduction assay, HSV 2; type: cell-based
Experimental: (§1) Protocol: Plaque reduction assay. Treatment after adsorption during incubation.

HCMV = test: Plaque reduction assay, HCMV; type: cell-based
Experimental: as §1

HIV-1 infected JM cells = test: Treatment of HIV-1 infected JM cells with DIDS, SITS and ddC; type: cell-based, HIV-1 (human T cell line JM); conditions: 5 μM
Experimental: Protocol: JM cells were infected with HIV to give approximately 100 syncytia after 3 days. Virus adsorption was at room temperature for 2 hours. The cells were then washed thoroughly and distributed in wells of a tissue culture plate at a concentration of 1×10^5 cells/well. At 24 hours post infection either DIDS (100 μg/ml), SITS (100 μg/ml), or ddC (5 μM) were added to wells having infected cells. As virus controls, some wells had no drug added. At 42 hours post infection other wells received either ddC (5 μM), SITS (100 μg/ml), or DIDS (100, 50, 25, 12.5, 6.25 μg/ml). Syncytia were scored at 3 and 4 days post-infection and the supernatant fluids were harvested after 3 and 4 days for p24 core antigen determination.

[1] = test system: virus-induced cell fusion (gp120-CD4 dependent); test: Anti-syncytial cocultivation assay: H9 cells chronically infected with HIV-1 RF mixed with uninfected C8166 cells; type: cell-based, HIV-1 RF; human H9 and C8166 cells; conditions: for blocking virus-induced cell fusion and death: summary statement
Text: Syncytial cell formation depends on the interaction of gp120, expressed in the membranes of infected cells, with the CD4 antigen on neighboring cells (Camerini and Seed, 1990). We utilized a cell cocultivation model to examine the effect of the stilbene disulfonic acids on the gp120-CD4 dependent fusion process. This system consists of mixing H9 cells chronically infected with HIV-1 RF (gp120^+ cells) with uninfected C8166 cells (CD4^+ cells) as the fusion indicator. In this assay, cell fusion occurred within 2 to 3 hours of mixing at 37° C. and substantial syncytia were observed after a further 3 to 4 hours (FIG. 1, Panel A). […] These findings with the sulfated polysaccharides were consistent with a previous report (Montefiori et al., 1990).
The effect of the stilbene disulfonic acids and various sulfated polysaccharides on virus-induced cell fusion. In this assay, 10^5 H9 cells, chronically infected with the HIV-1 strain RF, were cocultured with 10^5 uninfected C8166 cells in the absence and presence of the test compounds. FIG. 1A: Positive control, no compound addition; FIG. 1B: 100 μg/ml DIDS; FIG. 1C: 100 μg/ml SITS; FIG. 1D: positive control; FIG. 1E: 10 μg/ml 500,000 MW dextran sulfate; FIG. 1F: 250 μg/ml heparin.
CD4^+ uninfected C8166 cells were seeded into 24-well trays ([…]) that contained growth medium and various concentrations of test compounds. H9 cells, chronically infected with the RF strain of HIV-1, were washed and then added as a source of gp120^+ cells at 10^5 cells/well except for the noncytopathic control: those wells received uninfected H9 cells. The trays were then incubated at 37° C. and the cocultures were observed between 1 and 6 hours p.i. Syncytia were recorded on photographic film.
Protocol: H9 cells chronically infected with RF strain of HIV-1 and uninfected C8166 cells were mixed in the presence of either DIDS, SITS, H2 DIDS, dextran sulfate, or heparin (100 μg/ml). The cells were observed after 2, 31/2 and 51/2 hours and the amount of cell fusion quantified.
Protocol: H9 cells chronically inected with HIV-1 and uninfected C8166 cells were mixed in the presence of either DIDS, SITS, H2 DIDS, dextran sulfate, heparin (at 100 μg/ml), OKT4 or OKT4A (at a 1/50 dilution). The cells were observed after 4 hours and the amount of cell fusion quantitied. OKT4 and OKT4A are monoclonal antibodies that bined the CD4 cell surface antigen.

HIV-1 = conditions: cited from earlier work
[2] = test system: virus-induced cell fusion (gp120-CD4 dependent); test: Cell fusion after pretreatment of uninfected C8166 cells, washing and mixing with chronically infected H9 cells; type: cell-based, HIV-1; human H9 and C8166 cells; conditions: cells pretreated and washed before mixing with H9 cells
Experimental: In the next experiments, CD4+ C8166 cells were pretreated overnight with either DIDS (100 μg/ml), SITS (100 μg/ml) or drug-free medium. Unabsorbed compounds were removed by repeated washings and chronically infected H9 cells were then added. […] Thus, cell washing prior to mixing with the H9 cells oblated the protective effect observed above (FIG. 1, Panel E) when 500,000 MW dextran sulfate was continually present in the assay.
Pretreatment of CD4+ C8166 cells with DIDS blocks fusion with chronically infected H9 cells. In this experiment, C8166 cells were pretreated overight with various stilbene disulfonic acids or drug-free medium (fusion control). The cells were washed, incubated with chronically infected H9 cells and syncytia were photographed at 6 hours post-mixing. Pretreatment conditions were as follows: […]: 100 μg/ml SITS; FIG. 2B: drug-free medium; and FIG. 2C: 100 μg/ml DIDS.
In pretreatment experiments, CD4^+ C8166 cells were maintained in serum-free medium (RPMI 1640 plus human transferrin 50 μg/ml, bovine insulin 20 μg/ml, bovine serum albumin 2 mg/ml) and were exposed to compound by overnight incubation. Treated cells were washed twice in fresh serum-free medium and then cocultured with chronically infected H9 cells in serum-free medium. Otherwise, cell numbers, assay conditions and scoring of syncytia were as described above.
Protocol: C8166 cells were pretreated for 2.5 hours with either DIDS, SITS or H2 DIDS (at 500 and 250 μg/ml). The cells were then washed three times and mixed with H9 cells chronically infected with HIV-1. Cell fusion was quantified after 4 and 24 hours.

Compound: Nc1nc2c(ncn2COCCO)c(=O)[nH]1 [Acyclovir, reference compound]
- Plaque counts (HSV 2; 0.1 μg/ml, first count): 44
- activity at 0.1 µg/mL (HSV 2; 0.1 μg/ml, read-out: Mean % VC (plaques)): 70%
- Plaque counts (HSV 2; 0.1 μg/ml, second count): 34
- Plaque counts (HSV 2; 1 μg/ml, first count): 31
- activity at 1 µg/mL (HSV 2; 1 μg/ml, read-out: Mean % VC (plaques)): 54%
- Plaque counts (HSV 2; 1 μg/ml, second count): 31
- Plaque counts (HSV 2; 1 μg/ml, third count): 29
- Plaque counts (HSV 2; 10 μg/ml, first count): 0
- activity at 10 µg/mL (HSV 2; 10 μg/ml, read-out: Mean % VC (plaques)): 0%
- Plaque counts (HSV 2; 10 μg/ml, second count): 1
- Plaque counts (HSV 2; 10 μg/ml, third count): 0
- Plaque counts (HSV 2; 100 μg/ml, first count): 0
- activity at 100 µg/mL (HSV 2; 100 μg/ml, read-out: Mean % VC (plaques)): 0%
- Plaque counts (HSV 2; 100 μg/ml, second count): 0
- Plaque counts (HSV 2; 100 μg/ml, third count): 0

Compound: Nc1nc(O)c2ncn(COC(CO)CO)c2n1 [Gancyclovir, reference compound]
- Plaque counts (HCMV; 0.1 μg/ml, first count): 34
- Plaque counts (HCMV; 0.1 μg/ml, second count): 39
- Plaque counts (HCMV; 1 μg/ml, first count): 6
- Plaque counts (HCMV; 1 μg/ml, second count): 13
- Plaque counts (HCMV; 1 μg/ml, third count): 1
- Plaque counts (HCMV; 10 μg/ml, first count): 3
- Plaque counts (HCMV; 10 μg/ml, second count): 2
- Plaque counts (HCMV; 10 μg/ml, third count): 7
- Plaque counts (HCMV; 1000 μg/ml, first count): 0
- Plaque counts (HCMV; 1000 μg/ml, second count): 0
- Plaque counts (HCMV; 1000 μg/ml, third count): 0
- activity at 0.1 µg/mL (HCMV; Human betaherpesvirus 5, 0.1 μg/ml, read-out: Mean % VC (plaques)): > 100%
- activity at 1 µg/mL (HCMV; Human betaherpesvirus 5, 1 μg/ml, read-out: Mean % VC (plaques)): 22%
- activity at 10 µg/mL (HCMV; Human betaherpesvirus 5, 10 μg/ml, read-out: Mean % VC (plaques)): 10%
- activity at 1000 µg/mL (HCMV; Human betaherpesvirus 5, 1000 μg/ml, read-out: Mean % VC (plaques)): 0%

Compound: Nc1ccn([C@H]2CC[C@@H](CO)O2)c(=O)n1 [ddC, reference compound]
- Mean syncytia/well 3 days p.i. (HIV-1 infected JM cells; added 24 hr): 65
- Mean syncytia/well 4 days p.i. (HIV-1 infected JM cells; added 24 hr): 51
- p24 antigen 3 days p.i. (HIV-1 infected JM cells; added 24 hr): 9000 pg/mL
- p24 antigen 4 days p.i. (HIV-1 infected JM cells; added 24 hr): 3100 pg/mL
- Mean syncytia/well 3 days p.i. (HIV-1 infected JM cells; added 42 hr): As VC
- Mean syncytia/well 4 days p.i. (HIV-1 infected JM cells; added 42 hr): As VC
- p24 antigen 3 days p.i. (HIV-1 infected JM cells; added 42 hr): 17000 pg/mL
- p24 antigen 4 days p.i. (HIV-1 infected JM cells; added 42 hr): 67000 pg/mL
- activity at 5 µM (HIV-1 infected JM cells; Human immunodeficiency virus 1, 72 h, added 24 hr, read-out: p24 antigen 3 days p.i., % control): 19%
- activity at 5 µM (HIV-1 infected JM cells; Human immunodeficiency virus 1, 72 h, added 42 hr, read-out: p24 antigen 3 days p.i., % control): 36%
- activity at 5 µM (HIV-1 infected JM cells; Human immunodeficiency virus 1, 96 h, added 24 hr, read-out: p24 antigen 4 days p.i., % control): 3.5%
- activity at 5 µM (HIV-1 infected JM cells; Human immunodeficiency virus 1, 96 h, added 42 hr, read-out: p24 antigen 4 days p.i., % control): 75%

Compound: Dextran Sulfate [reference compound]
- Syncytia after 3 1/2 hrs ([1]; 100 μg/ml, virus control +++): 0
- Syncytia after 5 1/2 hrs ([1]; 100 μg/ml, virus control +++): 0
- inhibition of HIV-1 replication in vitro (HIV-1): highly effective inhibitors

Compound: Dextran sulfate (8,000) [reference compound]
- cell fusion / syncytia ([1]; 100 μg/ml, at the time of cell mixing): totally ineffective
- blocking virus-induced cell fusion and death [1]: ineffective at blocking virus-induced cell fusion and death

Compound: Heparin [reference compound]
- cell fusion relative to nontreated virus control ([1]; 250 μg/ml, Panel F): totally ineffective
- blocking virus-induced cell fusion and death [1]: ineffective at blocking virus-induced cell fusion and death
- protective effect after pretreatment [2]: no protective effect
- inhibition of HIV-1 replication in vitro (HIV-1): highly effective inhibitors

Compound: pentosan polysulfate
- inhibition of HIV-1 replication in vitro (HIV-1): highly effective inhibitors
